Source: publication PMC5358388 (Proceedings of the National Academy of Sciences of the …, 2017)
Like-named read-outs stand apart in the source and are kept apart here.

Columns and labels:
P. falciparum = assay: Growth inhibition of P. falciparum lines by chloroquine; type: cell-based; settings: Plasmodium falciparum
[1] = system: cytosolic labile heme in P. falciparum; type: cell-based, Plasmodium falciparum

## CCN(CC)CCCC(C)Nc1ccnc2cc(Cl)ccc12 (stereo not drawn) [chloroquine]
P. falciparum; read-out: chloroquine IC50 (95% CI), parasites expressing CH49Y
  IC50: 10.3 to 11.3 nM
P. falciparum; read-out: chloroquine IC50 (95% CI), parental NF54attB line
  IC50: 8.2 to 9.7 nM
[1]; 60 nM chloroquine, four independent experiments, P = 0.002
  average Δ[heme], increase in labile heme concentration vs untreated control: +0.86 µM
[1]; 60 nM chloroquine, assuming no chloroquine in the cytosol
  lower bound on labile cytosolic heme level: ~2.8 µM
[1]; 60 nM chloroquine, assuming ≥1:1 chloroquine:heme in the cytosol
  upper bound on labile cytosolic heme level: ~7 µM

## CCc1nc(N)nc(N)c1-c1ccc(Cl)cc1 [pyrimethamine]
[1]; pyrimethamine 125 and 500 nM, 32 h
  change in labile heme concentration, treated vs untreated parasites: No increase in labile heme concentration
